Columns and labels:
β-catenin [1] = assay: Immunofluorescence staining of β-catenin in SW480 cells; format: cell-based; conditions: SW480, 5 μM, 24 hours
Method: Cells were seeded singly on 12 mm glass coverslips in 24-well plates. At the second day, cells were washed with PBS, fixed in 4% PBS buffered paraformaldehyde at room temperature for 20 minutes, permeabilized in 0.5% Triton X-100 for 10 minutes, blocked in 100 mM glycine for 5 minutes and with PBS wash between each step. After blocking with 0.5% BSA/PBS for 15 minutes, cells were incubated with primary antibodies (β-catenin, ab16051, 1:1000, Abcam; Ki67, ab16667, clone SP6, 1:50, Abcam) in 0.5% BSA/PBS for 1 hour at room temperature. The FITC-labelled secondary antibody (Southern Biotech, 4050-02) was added for 45 minutes at room temperature. Coverslips were mounted in SlowFade® Diamond Antifade Mountant with DAPI (Life Technologies, S36964) on glass slides. Images were captured using the Qcapture Suite software with a Qimaging Exi Blue camera attached to a Leica DMRBE microscope.

MED23 = target: T1, MED23 (Homo sapiens, UniProt Q9ULK4); assay: Cellular thermal shift assay (CETSA), MED23; format: binding; conditions: SW480, 10 μM
T1 construct: endogenous in cells; host or cells: SW480
T1 sequence (Q9ULK4 1-1368): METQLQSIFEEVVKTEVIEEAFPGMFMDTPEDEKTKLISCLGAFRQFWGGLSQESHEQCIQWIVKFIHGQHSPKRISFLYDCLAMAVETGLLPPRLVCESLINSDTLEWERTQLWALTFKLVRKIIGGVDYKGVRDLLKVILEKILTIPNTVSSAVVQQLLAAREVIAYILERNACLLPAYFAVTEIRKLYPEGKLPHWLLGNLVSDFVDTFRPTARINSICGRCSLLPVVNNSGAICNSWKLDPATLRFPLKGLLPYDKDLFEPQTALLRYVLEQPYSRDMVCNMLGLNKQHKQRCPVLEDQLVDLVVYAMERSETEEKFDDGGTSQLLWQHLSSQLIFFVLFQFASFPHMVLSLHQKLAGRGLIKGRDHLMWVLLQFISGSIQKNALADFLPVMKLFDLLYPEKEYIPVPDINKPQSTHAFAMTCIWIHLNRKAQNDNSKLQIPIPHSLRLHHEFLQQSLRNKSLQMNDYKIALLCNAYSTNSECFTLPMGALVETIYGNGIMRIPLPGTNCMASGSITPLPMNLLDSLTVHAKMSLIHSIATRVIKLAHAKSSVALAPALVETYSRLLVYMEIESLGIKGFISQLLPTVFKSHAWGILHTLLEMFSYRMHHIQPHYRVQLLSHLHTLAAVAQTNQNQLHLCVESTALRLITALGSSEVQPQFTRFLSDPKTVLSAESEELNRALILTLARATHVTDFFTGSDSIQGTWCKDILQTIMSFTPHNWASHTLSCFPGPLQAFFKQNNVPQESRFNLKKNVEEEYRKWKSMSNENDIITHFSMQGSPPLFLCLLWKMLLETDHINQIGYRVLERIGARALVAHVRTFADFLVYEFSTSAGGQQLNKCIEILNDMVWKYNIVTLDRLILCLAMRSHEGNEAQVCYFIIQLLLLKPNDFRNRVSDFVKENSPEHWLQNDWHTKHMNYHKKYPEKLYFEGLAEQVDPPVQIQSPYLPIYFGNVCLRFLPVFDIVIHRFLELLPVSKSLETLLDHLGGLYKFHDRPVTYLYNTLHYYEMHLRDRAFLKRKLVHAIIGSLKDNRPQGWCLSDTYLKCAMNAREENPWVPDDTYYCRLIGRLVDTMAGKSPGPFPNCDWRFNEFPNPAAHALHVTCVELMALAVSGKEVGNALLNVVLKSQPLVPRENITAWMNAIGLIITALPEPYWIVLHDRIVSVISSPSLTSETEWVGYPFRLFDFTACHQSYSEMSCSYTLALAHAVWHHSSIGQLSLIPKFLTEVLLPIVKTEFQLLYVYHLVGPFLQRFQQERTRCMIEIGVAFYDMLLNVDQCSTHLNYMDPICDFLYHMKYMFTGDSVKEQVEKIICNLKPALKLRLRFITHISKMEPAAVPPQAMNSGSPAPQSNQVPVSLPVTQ
Method: CETSA in intact cells was performed according to the protocol previously described (Martinez Molina, D. et al., 2013, Science 341, 84-87). Briefly, SW480 cells were seeded equally in 2 T75 flasks and allowed to reach 80% confluence one day after. […] After trypsinization and PBS wash, cells were resuspended in 450 μl PBS containing freshly added protease inhibitors and equally divided between 7 tubes. Cells in each tube were heated at indicated temperatures for 3 minutes and kept at room temperature for 3 minutes. Heated cells were lysed by 3 cycles of freezing in liquid nitrogen (1 minute) and thawing in room temperature water (1 minute). The cell lysates were centrifuged at 20,000 g for 20 minutes at 4° C. The soluble fractions were isolated for Western blotting analysis.

transgenic zebrafish = assay: Tailfin regeneration assay in adult TCF-GFP transgenic zebrafish; conditions: 5 μM
β-catenin [2] = assay: Western blotting of β-catenin in SW480 cells; format: cell-based
Method: Culture cells were lysed in RIPA buffer (50 mM Tris-HCl, pH 7.4, 150 mM NaCl, 1% NP-40, 0.5% sodium deoxycholate, 0.1% SDS, 1 mM EDTA) containing freshly added protease inhibitors (Roche, 11836153001). Protein lysates were resolved in Novex 10% BisTris MiniGels (Life technologies, NP0303BOX) and transferred onto PVDF membranes with Pierce 1-Step Transfer Buffer (Thermo Fisher Scientific, 84731). Membranes were developed by using Pierce Fast Western Blot Kit with ECL Substrate (Thermo Fisher Scientific, 35050) and primary antibodies (β-catenin, ab16051, 1:2000 Abcam; GAPDH, ab181602, clone EPR16891, 1:20000, Abcam; hemagglutinin, ab9134, 1:2000, Abcam; FLAG, ab1162, 1:1000, Abcam; ubiquitin, ab7254, clone Ubi-1, 1:5000, Abcam; SHPRH, ab80129, 1:1000, Abcam; non-phospho-(active) β-catenin (Ser33/37/Thr41), 4270, 1:1000, Cell Signaling Technology; phospho-3-catenin (Ser33/37/Thr41), 9561, 1:1000, Cell Signaling Technology; β-catenin-Thr41/Ser45, 9565, 1:1000, Cell Signaling Technology; MED23, BD550429, clone D27-1805, 1:500, BD Biosciences). Proteins were visualized and captured by a ChemiDOC XRS system and Quantity One software (Bio-Rad Laboratories).

RKO cells = assay: EdU label release assay, RKO; format: cell-based; conditions: 5 μM, 3 days
Method: (§1) Two days later, cells were seeded singly onto 12 mm glass coverslips in 24-well plates. One day after, EdU was detected using the Click-iT® Plus EdU Alexa Fluor 488 Imaging Kit (Life Technologies, C10637) according to the manufacturer's protocol. For double staining of EdU and other proteins, the EdU stained cells were further used for immunofluorescence staining as described above. Intensity of EdU staining in paired cells were quantified by Photoshop CS6 software, unequal EdU distribution was considered when paired cells had intensity ratio higher than 2.

[3] = tested on: Wnt signals (TCF-GFP reporter); assay: TCF-GFP expression assay in transgenic zebrafish embryos; format: in vivo; conditions: embryos treated for 2 days
Method: Transgenic zebrafish harboring Tcf/Lef-miniP:dGFP reporter (line isi04) was obtained from National BioResource Project Zebrafish, Japan. Fish were kept under standard conditions and treated humanely in accordance with approved Institutional Animal Care and Use Committee of University of Bergen. For embryo experiments, embryos at 6 hpf (hours post fertilization) were cultured in 6-well plates (20 embryos per well) at 28° C. Embryos were treated with indicated chemicals and water was replenished daily. […] For TCF-GFP expression assay, embryos at 3 dpf were examined under fluorescence microscope. In both assays embryos that died during treatment were excluded from assessment.

GFP-SHPRH = target: T2, GFP-SHPRH (Homo sapiens, UniProt Q149N8); assay: MST ligand-binding assay, GFP-SHPRH in SW480 cell lysates; conditions: 25° C., 4 replicates
T2 construct: expressed in transfected cells; host or cells: SW480
T2 sequence (Q149N8 whole entry): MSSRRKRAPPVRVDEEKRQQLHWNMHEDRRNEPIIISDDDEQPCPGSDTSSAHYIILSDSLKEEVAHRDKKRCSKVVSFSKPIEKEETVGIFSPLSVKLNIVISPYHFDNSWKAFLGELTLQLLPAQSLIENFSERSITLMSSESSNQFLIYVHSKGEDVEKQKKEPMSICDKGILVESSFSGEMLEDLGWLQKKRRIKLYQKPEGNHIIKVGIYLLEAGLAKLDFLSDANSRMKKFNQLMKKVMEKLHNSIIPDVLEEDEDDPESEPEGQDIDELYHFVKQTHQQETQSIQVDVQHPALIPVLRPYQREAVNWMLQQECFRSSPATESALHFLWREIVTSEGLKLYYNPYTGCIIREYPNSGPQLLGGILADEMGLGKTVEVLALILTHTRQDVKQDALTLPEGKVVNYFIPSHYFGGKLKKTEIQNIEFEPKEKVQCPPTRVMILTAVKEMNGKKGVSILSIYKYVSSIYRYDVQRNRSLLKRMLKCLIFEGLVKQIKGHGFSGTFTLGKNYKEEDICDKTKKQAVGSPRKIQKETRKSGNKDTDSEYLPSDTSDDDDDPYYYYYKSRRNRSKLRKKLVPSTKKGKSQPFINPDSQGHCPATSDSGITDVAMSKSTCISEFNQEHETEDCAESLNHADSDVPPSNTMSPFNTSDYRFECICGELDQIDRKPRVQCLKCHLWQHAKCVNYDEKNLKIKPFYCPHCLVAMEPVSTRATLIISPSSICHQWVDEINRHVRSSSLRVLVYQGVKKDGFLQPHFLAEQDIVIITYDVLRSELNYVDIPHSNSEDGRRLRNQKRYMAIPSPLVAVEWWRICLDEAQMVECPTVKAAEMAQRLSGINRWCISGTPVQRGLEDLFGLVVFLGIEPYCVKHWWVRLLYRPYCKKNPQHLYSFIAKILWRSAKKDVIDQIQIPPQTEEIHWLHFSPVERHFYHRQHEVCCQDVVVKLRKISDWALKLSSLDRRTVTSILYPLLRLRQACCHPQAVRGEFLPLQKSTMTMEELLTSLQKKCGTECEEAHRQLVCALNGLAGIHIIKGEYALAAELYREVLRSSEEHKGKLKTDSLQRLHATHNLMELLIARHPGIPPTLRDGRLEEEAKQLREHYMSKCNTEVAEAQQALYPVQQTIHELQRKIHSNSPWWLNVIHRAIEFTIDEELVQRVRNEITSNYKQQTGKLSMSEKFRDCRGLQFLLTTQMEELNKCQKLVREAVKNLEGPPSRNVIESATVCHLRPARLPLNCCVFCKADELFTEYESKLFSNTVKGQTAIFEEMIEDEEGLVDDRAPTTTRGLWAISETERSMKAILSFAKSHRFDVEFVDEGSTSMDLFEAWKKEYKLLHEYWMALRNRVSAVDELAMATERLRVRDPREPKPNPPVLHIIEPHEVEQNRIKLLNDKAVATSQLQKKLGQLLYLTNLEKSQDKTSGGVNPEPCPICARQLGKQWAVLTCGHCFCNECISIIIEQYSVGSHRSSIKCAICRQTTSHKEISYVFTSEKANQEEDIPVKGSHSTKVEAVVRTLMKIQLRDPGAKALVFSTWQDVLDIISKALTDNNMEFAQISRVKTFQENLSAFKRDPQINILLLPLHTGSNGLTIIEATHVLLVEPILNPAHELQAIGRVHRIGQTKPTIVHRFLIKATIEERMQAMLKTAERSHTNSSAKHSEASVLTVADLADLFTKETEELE
Method: Ten million SW480 cells overexpressing GFP-tagged SHPRH or free GFP were lysed in 1 mL radioimmunoprecipitation assay (RIPA) buffer. Cell lysates were diluted in buffer A [50 mM Hepes buffer (pH 7.5), 5 mM DTT, 10 mM CaCl2), 50 mM NaCl, and 0.05% Tween-20] to a final concentration at which the fluorescent signals of the GFP proteins were similar and well above the detection limit of the Monolith NT.115 instrument (NanoTemper Technologies GmbH). Ten microliters of each receptor were mixed with 10 μL of the ligand at various concentrations from 100 μM to 3.05 nM. Specifically, the ligand (4 mM in 100% DMSO) was diluted 1:20 to a final concentration of 200 μM in buffer A (giving 5% DMSO). Ten microliters of the 200 μM ligand solution was further serially diluted 1:1 in 10 μL of buffer A supplemented with 5% DMSO to make a 16-sample dilution series down to 6.1 nM. Ten microliters of the cell lysate were added to 10 μL of each ligand solution. […] The fluorescence signal during the thermophoresis was monitored for 30 s, and the change in fluorescence was analyzed as thermophoresis with T-jump. The Kd was calculated by fitting a standard binding curve to the average of four independent dilution series.

SW480 cells = assay: EdU label release assay, SW480; format: cell-based; conditions: SW480, 5 μM, 3 days; never found in control cells
Method: as §1

In the case of `CNC(=O)c1ccccc1Sc1ccc2c(/C=C/c3ccccn3)n[nH]c2c1` [axitinib, N-Methyl-2-[[3-[(E)-2-pyridin-2-ylethenyl]-1H-indazol-6-yl]sulfanyl]benzamide], the “cells with unequal distribution of nuclear β-catenin (β-catenin ACD)” value (β-catenin [1]) is reported as about 19%, the “direct binding in intact living cells” value (MED23) is reported as “confirmed” and the “tailfin regrowth and TCF-GFP activation” value (transgenic zebrafish; 6 consecutive days) is reported as “completely inhibited”. The “intestine: crypt-villus architecture and incorporation of BrdU” value (transgenic zebrafish; 6 days) was “no significant change”, the “phosphorylated and non-phospho (active) β-catenin (ABC)” value (β-catenin [2]; APC mutant SW480 cells, 24 hours) was “reduced” and the “β-catenin level (Western blots)” value (β-catenin [2]; SW480, dose course 24 hours, time course at 5 μM) was “dose and time dependent decrease”. The “EdU ACD” value (RKO cells) was “pre-treatment with 6B10 was required for EdU ACD induction”, the “TCF-GFP expression in the midbrain/hindbrain boundary and fin mesenchyme” value [3] was “decreased” and the Kd (GFP-SHPRH) was 10.4 ± 3.3 µM. The “cells with unequal EdU labelling (EdU ACD)” value (SW480 cells) was “around 15%”.
